In ChEMBL document CHEMBL1201862, “PubChem BioAssay data set” (2004):
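Cells were grown in 96-well plates and exposed to each compound for 48 hours at five concentrations; endpoints were interpolated linearly between bracketing concentrations, or set to the highest concentration if not reached. Here, GI50 denotes the concentration required for 50% inhibition of growth.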 The source made the active and inactive calls. Rule as the data show it: active = GI50 up to about 1.1 µM and inactive = higher.

Key:
Assay in all cases: NCI tumour cell line growth inhibition, 48 h
SK-MEL-28 = test system: SK-MEL-28
MOLT-4 = test system: MOLT-4
CCRF-CEM = test system: CCRF-CEM
OVCAR-3 = test system: OVCAR-3
SNB-19 = test system: SNB-19
CAKI-1 = test system: CAKI-1
UACC-257 = test system: UACC-257
TK-10 = test system: TK-10
K562 = test system: K562
NCI-H522 = test system: NCI-H522
UO-31 = test system: UO-31
SN12C = test system: SN12C
SF-295 = test system: SF-295
UACC-62 = test system: UACC-62
SNB-75 = test system: SNB-75
SF-268 = test system: SF-268
HCC 2998 = test system: HCC 2998
HOP-92 = test system: HOP-92
OVCAR-5 = test system: OVCAR-5

Measured: GI50

Cc1cccc(C(C)(C)C)c1NC(=O)CCl
inactive: SK-MEL-28 > 100 µM | MOLT-4 > 100 µM | CCRF-CEM > 100 µM | OVCAR-3 > 100 µM | SNB-19 > 100 µM | CAKI-1 > 100 µM | UACC-257 > 100 µM | TK-10 > 100 µM | K562 > 100 µM | NCI-H522 > 100 µM | UO-31 > 100 µM | SN12C > 100 µM | SF-295 > 100 µM | UACC-62 > 100 µM | SNB-75 > 100 µM | SF-268 > 100 µM | HCC 2998 > 100 µM

CCOC(=O)c1cc(C(=O)O)c(=O)n2c1[nH]c1ccccc12
inactive: SK-MEL-28 26.2 µM | MOLT-4 > 100 µM | CCRF-CEM > 100 µM | OVCAR-3 > 100 µM | SNB-19 44.3 µM | CAKI-1 > 100 µM | UACC-257 > 100 µM | TK-10 > 100 µM | K562 > 100 µM | NCI-H522 26.7 µM | UO-31 23.9 µM | SN12C > 100 µM | SF-295 > 100 µM | UACC-62 44.5 µM | SNB-75 31.8 µM | SF-268 61 µM | HCC 2998 > 100 µM

NC(=O)NCc1c(C(N)=O)ncn1Cc1ccccc1
inactive: HOP-92 > 100 µM | SK-MEL-28 > 100 µM | MOLT-4 > 100 µM | CCRF-CEM > 100 µM | OVCAR-3 > 100 µM | SNB-19 > 100 µM | CAKI-1 > 100 µM | UACC-257 > 100 µM | TK-10 > 100 µM | K562 > 100 µM | SN12C > 100 µM | SF-295 > 100 µM | UACC-62 > 100 µM | SNB-75 > 100 µM | HCC 2998 > 100 µM

COC(=O)c1cccc2c3ccccc3c3ccccc3c12
inactive: SK-MEL-28 41.5 µM | MOLT-4 24.5 µM | CCRF-CEM 27.5 µM | OVCAR-3 21.4 µM | SNB-19 30.4 µM | CAKI-1 40.4 µM | UACC-257 38.3 µM | TK-10 46.5 µM | K562 29 µM | NCI-H522 36.4 µM | UO-31 39.9 µM | SN12C 45.4 µM | SF-295 26.6 µM | OVCAR-5 49.1 µM | UACC-62 24.3 µM | SNB-75 26.9 µM | SF-268 37.2 µM | HCC 2998 43.1 µM

COC(=O)C1=C(C)N(NC(=O)c2ccccc2)C(C)(O)C12CCOC2=O (centres undefined)
inactive: SK-MEL-28 > 100 µM | MOLT-4 > 100 µM | CCRF-CEM > 100 µM | OVCAR-3 > 100 µM | SNB-19 > 100 µM | CAKI-1 > 100 µM | UACC-257 > 100 µM | TK-10 > 100 µM | K562 > 100 µM | NCI-H522 > 100 µM | UO-31 > 100 µM | SN12C > 100 µM | SF-295 > 100 µM | OVCAR-5 > 100 µM | UACC-62 > 100 µM | SF-268 > 100 µM | HCC 2998 > 100 µM

S=C1NCCN1
inactive: HOP-92 > 100 µM | SK-MEL-28 > 100 µM | MOLT-4 > 100 µM | CCRF-CEM > 100 µM | OVCAR-3 > 100 µM | SNB-19 > 100 µM | CAKI-1 > 100 µM | UACC-257 > 100 µM | TK-10 > 100 µM | K562 > 100 µM | NCI-H522 > 100 µM | UO-31 > 100 µM | SN12C > 100 µM | SF-295 > 100 µM | OVCAR-5 > 100 µM | UACC-62 > 100 µM | SNB-75 > 100 µM | SF-268 > 100 µM

COC(=O)CC1NC(=O)C1C1(C)OCCO1 (centres undefined)
inactive: SK-MEL-28 > 100 µM | OVCAR-3 > 100 µM | SNB-19 > 100 µM | UACC-257 > 100 µM | TK-10 > 100 µM | UO-31 > 100 µM | SN12C > 100 µM | SF-295 > 100 µM | UACC-62 > 100 µM | SNB-75 28 µM | SF-268 > 100 µM | HCC 2998 > 100 µM

CC1(S)CC2C(CC1Sc1ccccc1)C2(C)C (centres undefined)
inactive: HOP-92 > 100 µM | SK-MEL-28 > 100 µM | MOLT-4 > 100 µM | CCRF-CEM > 100 µM | OVCAR-3 > 100 µM | UACC-257 > 100 µM | TK-10 > 100 µM | K562 > 100 µM | UO-31 > 100 µM | SN12C > 100 µM | SF-295 > 100 µM | OVCAR-5 > 100 µM | SNB-75 > 100 µM | SF-268 > 100 µM | HCC 2998 > 100 µM

CCOC(=O)Cc1c(Cc2[nH]c(C(=O)OCc3ccccc3)c(CC(=O)OCC)c2CC(=O)OCC)[nH]c(C(=O)OCc2ccccc2)c1CC(=O)OCC
inactive: HOP-92 > 100 µM | SK-MEL-28 > 100 µM | MOLT-4 > 100 µM | CCRF-CEM > 100 µM | OVCAR-3 > 100 µM | SNB-19 > 100 µM | CAKI-1 > 100 µM | K562 > 100 µM | NCI-H522 > 100 µM | UO-31 67.8 µM | SN12C > 100 µM | SF-295 > 100 µM | UACC-62 > 100 µM | SNB-75 > 100 µM | SF-268 > 100 µM

Cc1ccc(S(=O)(=O)/N=C(\NN)Nc2ccc(Cl)cc2)cc1
inactive: HOP-92 > 100 µM | SK-MEL-28 > 100 µM | MOLT-4 > 100 µM | CCRF-CEM > 100 µM | OVCAR-3 > 100 µM | SNB-19 > 100 µM | CAKI-1 > 100 µM | UACC-257 > 100 µM | TK-10 > 100 µM | K562 > 100 µM | UO-31 > 100 µM | SN12C > 100 µM | SF-295 > 100 µM | OVCAR-5 > 100 µM | UACC-62 > 100 µM | SNB-75 37.8 µM

CCc1cccc(C)c1NC(=O)C(=O)CC(=O)c1ccc(Cl)s1
inactive: HOP-92 > 100 µM | SK-MEL-28 > 100 µM | MOLT-4 > 100 µM | CCRF-CEM > 100 µM | SNB-19 > 100 µM | CAKI-1 > 100 µM | UACC-257 > 100 µM | TK-10 > 100 µM | K562 > 100 µM | UO-31 > 100 µM | SN12C > 100 µM | SF-295 > 100 µM | UACC-62 > 100 µM | SNB-75 > 100 µM | SF-268 > 100 µM | HCC 2998 > 100 µM

CS(=O)(=O)OC1CCC2(C#N)CCC1C2=O (centres undefined)
inactive: SK-MEL-28 > 100 µM | MOLT-4 > 100 µM | CCRF-CEM > 100 µM | OVCAR-3 > 100 µM | SNB-19 > 100 µM | CAKI-1 > 100 µM | UACC-257 > 100 µM | TK-10 > 100 µM | K562 > 100 µM | NCI-H522 86.5 µM | UO-31 > 100 µM | SN12C > 100 µM | SF-295 > 100 µM | OVCAR-5 > 100 µM | UACC-62 > 100 µM | SNB-75 > 100 µM | SF-268 > 100 µM | HCC 2998 46.1 µM
